{"source": "patent EP3854384A1", "about": "“PHARMACEUTICAL FORMULATION COMPRISING ABIRATERONE ACETATE” (Adamed Pharma S.A., priority 2020, dated 2021)", "origin": "cited, not measured here", "conditions": "low water solubility and low intestinal permeability", "data": [{"smiles": "CC(=O)O[C@H]1CC[C@@]2(C)C(=CC[C@@H]3[C@@H]2CC[C@]2(C)C(c4cccnc4)=CC[C@@H]32)C1", "note": "[Abiraterone acetate, (3β)-17-(3-pyridinyl)androsta-5,16-dien-3-yl acetate]", "values": [{"measurement": "Biopharmaceutical Classification System (BCS) class", "result": "class IV"}]}]}
